Source: patent US8017735B2, “Anti-IGFR1 antibody therapeutic combinations” (Schering Corporation, priority 2003, dated 2011)
Where “and” joins values, the source holds several entries; their conditions need not be identical. Identical values can stand only once.

B1: 19D12: Anti-IGFR antibody 19D12 (antibody, listed as Homo sapiens, V domains shown)
VL: MSPSQLIGFLLLWVPASRGEIVLTQSPGTLSVSPGERATLSCRASQSIGSSLHWYQQKPGQAPRLLIKYASQSLSGIPDRFSGSGSGTDFTLTISRLEPEDFAVYYCHQSSRLPHTFGQGTKVEIKRT
VH: MEFGLSWVFLVAILKGVQCEVQLVQSGGGLVKPGGSLRLSCAASGFTFSSFAMHWVRQAPGKGLEWISVIDTRGATYYADSVKGRFTISRDNAKNSLYLQMNSLRAEDTAVYYCARLGNFYYGMDVWGQGTTVTVSS

Tests used:
H322 NSCLC cells = assay: Proliferation assay (Cell Titer-Glo) with anti-IGFR1 antibody and a chemotherapeutic agent, H322 NSCLC cells; assay type: cell-based, human; conditions: H322, Day4, replicates
Protocol: The ability of cells in culture to proliferate when exposed to varying concentrations of the 19D12/15H12 wild-type or 19D12/15H12 LCF/HCA anti-IGFR1 antibody and either paclitaxel, gefitinib, lonafarnib 4-hydroxy tamoxifen or doxorubicin was evaluated in this example.
Cell Preparation. […] The cells were trypsinized, counted and resuspended at a concentration of 25000 cells/ml in 10% HI-FBS (heat-inactivated fetal bovine serum) RPMI medium containing NEAA (non-essential amino acids), L-Glu, MEM Vitamins and PS. 100 ul of cell suspension (2500 cells) was added to each well of a BD Falcon 96 well black, clear bottom TC treated plate. The cells were allowed to attach and spread overnight at 37° C. The 10% RPMI solution was replaced with 100 μl RPMI containing 2% HI-FBS containing NEAA, L-Glu, MEM Vitamins and PS.
Solution Preparation. All assay reagents were prepared in RPMI containing 2% HI-FBS at 20× concentration and serial diluted for a total of 10 test concentrations per treatment. Every test point was prepared in triplicate on separate assay plates.
Reagent 1 and 19D12/15H12 or 19D12/15H12 LCF/HCA were set up individually as dose responses as well as in combination with each other. Cell proliferation was measured on Day4.
Assay. Cell proliferation was measured using the Promega Cell Titer-Glo Luminescent Cell Viability Assay (Promega Corp.; Madison, Wis.). This assay provided a method for determining the number of viable cells in culture based on quantitation of ATP in the culture, which indicates the presence of metabolically active cells.
The assay reagents and assay plates were equilibrated to room temperature and prepared immediately before addition to the assay plates. One volume of assay reagent was added to each well of the assay plate and shaken on an orbital platform for at least ten minutes to allow for equilibration of the ATP reaction and to ensure total lysis of all cells in the assay plate. […] Luminescence was detected on Wallac 420 Plate Reader with stacker.
The units in the tables (proliferation index) are arbitrary and are proportional to the number of viable cells observed in the culture under each respective condition.
In Tables 2-6, “ug” indicates micrograms and “uM” indicates micromolar.

H322 human NSCLC cells = assay: In vivo tumor inhibition assay, NSCLC xenograft model H322; design: species or system nude mice; conditions: for Growth: Day 0 to 31
Protocol: Five million H322 human NSCLC cells in Matrigel were inoculated subcutaneously into nude mice. Anti-IGFR antibody 19D12 and/or paclitaxel treatment was initiated when the tumor size reached ˜105-115 mm^3 at day 0. Both 19D12 and paclitaxel were dosed twice per week. Anti-IGFR antibody 19D12 was dosed at 0.5 mg per mouse. Paclitaxel was at 15 mpk. Ten animals per group. Tumor volumes were measured by Labcat.

[1] = Day 0 (treatment start), H322 xenograft in nude mice
[2] = 19D12 0.5 mg per mouse and/or Taxol 15 mpk, twice per week
[3] = Day 31, 19D12 0.5 mg per mouse and/or Taxol 15 mpk, twice per week

| Molecule | proliferation index (H322 NSCLC cells; Taxol alone 0.00256 ng/mL) | proliferation index (H322 NSCLC cells; Taxol alone 0.064 ng/mL) | proliferation index (H322 NSCLC cells; Taxol alone 8 ng/mL) | proliferation index (H322 NSCLC cells; Taxol alone 40 ng/mL) | proliferation index (H322 NSCLC cells; Taxol alone 200 ng/mL) | proliferation index (H322 NSCLC cells; Taxol alone 1000 ng/mL) | tumor volume (H322 human NSCLC cells; [1]) [mm3] | Growth (H322 human NSCLC cells; [2]) | % inhibition (tumor growth inhibition) (H322 human NSCLC cells; [3]) [%] | tumor volume (H322 human NSCLC cells; [3]) [mm3] |
| --- | --- | --- | --- | --- | --- | --- | --- | --- | --- | --- |
| CC(=O)O[C@H]1C(=O)[C@@]2(C)[C@H]([C@H](OC(=O)c3ccccc3)[C@]3(O)C[C@H](OC(=O)[C@H](O)[C@@H](NC(=O)c4ccccc4)c4ccccc4)C(C)=C1C3(C)C)[C@]1(OC(C)=O)CO[C@@H]1C[C@@H]2O [Taxol, paclitaxel] | 72498 and 78070 and 89290 and 71662 and 72122 and 77618 and 81720 and 80172 and 76744 | 75374 and 83082 and 74926 and 73584 and 75710 and 75356 and 87602 and 75690 and 76350 | 38354 and 33654 and 34598 and 31556 and 36038 and 35906 and 34498 and 53256 and 41418 | 22160 and 25204 and 22624 and 22020 and 22956 and 24152 and 23908 and 24834 and 22462 | 19372 and 23650 and 23668 and 23164 and 23482 and 24314 and 25752 and 23960 and 21420 | 20932 and 26882 and 24582 and 23884 and 23712 and 25890 and 24522 and 24842 and 20306 | 109.54 | 104.71 | 52 | 214.25 |
| B1 |  |  |  |  |  |  | 106.57 | 66.45 | 75.50 | 173.02 |
